From ChEMBL document CHEMBL1126172, “Modeling of competitive phosphono amino acid NMDA receptor antagonists” (J Med Chem, 1992)

Columns and labels:
Assay type in all cases: protein-complex assay
Glutamate NMDA receptor [1] = assay: Displacement of [3H]CPP or [3H]-CGS- 19755 from rat N-methyl-D-aspartate glutamate receptor
Glutamate NMDA receptor [2] = assay: Compound was evaluated for its ability to displace [3H]-CGS- 19755 ligand from N-methyl-D-aspartate glutamate receptor
Glutamate NMDA receptor [3] = assay: Compound was evaluated for its ability to displace [3H]-CPP ligand from N-methyl-D-aspartate (NMDA) receptor
Glutamate NMDA receptor [4] = assay: (§1) Compound was evaluated for its ability to displace [3H]CPP or [3H]-CGS- 19755 ligand from N-methyl-D-aspartate (NMDA) receptor
Glutamate NMDA receptor [5] = assay: Compound was evaluated for its ability to displace [3H]CPP or [3H]-CGS- 19755 ligand from N-methyl-D-aspartate glutamate receptor
Glutamate NMDA receptor [6] = assay: Compound was evaluated for its ability to displace [3H]CPP ligand from N-methyl-D-aspartate (NMDA) receptor
Glutamate NMDA receptor [7] = assay: Compound was evaluated for its ability to displace [3H]CPP ligand from N-methyl-D-aspartate glutamate receptor
Glutamate NMDA receptor [8] = assay: as §1; remark: listed apart in the source

In the case of CC(C)([C@@H]1CCN[C@H](C(=O)O)C1)P(=O)(O)O, the Ki (Glutamate NMDA receptor [1]) is reported as over 1 µM.
Compound NC(CCCCCP(=O)(O)O)C(=O)O (configuration not stated) [AP-7] has a Ki (Glutamate NMDA receptor [2]) of 0.912 µM and a Ki (Glutamate NMDA receptor [1]) of under 1 µM.
C/C(=C\C(N)C(=O)O)CP(=O)(O)O (configuration not stated) [CGP-37849] was tested, and the Ki (Glutamate NMDA receptor [3]) was 0.035 µM and the Ki (Glutamate NMDA receptor [4]) was under 1 µM.
Work on O=C(O)[C@@H]1C[C@H](/C=C/CP(=O)(O)O)CCN1 yielded a Ki (Glutamate NMDA receptor [2]) of 0.014 µM and a Ki (Glutamate NMDA receptor [1]) of under 1 µM.
NC(CCCCP(=O)(O)O)C(=O)O (configuration not stated) gave a Ki (Glutamate NMDA receptor [5]) of over 1 µM and a Ki (Glutamate NMDA receptor [6]) of 0.042 µM.
CC([C@@H]1CCN[C@H](C(=O)O)C1)P(=O)(O)O (some centres not stated) gave a Ki (Glutamate NMDA receptor [1]) of over 1 µM.
Compound C[C@@H]1CN[C@H](C(=O)O)C[C@@H]1CP(=O)(O)O has a Ki (Glutamate NMDA receptor [1]) of under 1 µM.
C[C@@H]1[C@H](CP(=O)(O)O)CCN[C@@H]1C(=O)O gave a Ki (Glutamate NMDA receptor [1]) of over 1 µM.
NC(CCCP(=O)(O)O)C(=O)O (configuration not stated) was tested, and the Ki (Glutamate NMDA receptor [7]) was 0.26 µM and the Ki (Glutamate NMDA receptor [1]) was under 1 µM.
Compound O=C(O)[C@@H]1C[C@H](CCCP(=O)(O)O)CCN1 has a Ki (Glutamate NMDA receptor [1]) of under 1 µM.
In the case of NC(CCc1ccccc1CP(=O)(O)O)C(=O)O (configuration not stated), the Ki (Glutamate NMDA receptor [1]) is reported as over 1 µM.
In the case of O=C(O)[C@@H]1C[C@H](C/C=C/P(=O)(O)O)CCN1, the Ki (Glutamate NMDA receptor [2]) is reported as 0.072 µM and the Ki (Glutamate NMDA receptor [1]) is reported as under 1 µM.
In the case of C[C@H]1C[C@@H](CP(=O)(O)O)C[C@@H](C(=O)O)N1, the Ki (Glutamate NMDA receptor [1]) is reported as over 1 µM.
O=C(O)[C@H]1NCCC[C@H]1CCP(=O)(O)O was tested, and the Ki (Glutamate NMDA receptor [1]) was over 1 µM.
With O=C(O)[C@@H]1C[C@H](CP(=O)(O)O)CCN1 [SELFOTEL] the Ki (Glutamate NMDA receptor [8]) was 0.13 µM and the Ki (Glutamate NMDA receptor [4]) was under 1 µM.
